Data: patent US20160000074A1, “HERBICIDAL COMPOSITION AND METHOD OF USE THEREOF” (SYNGENTA PARTICIPATIONS AG, priority 2013, published 2016)

What was measured:
Test in all cases: Turf selectivity evaluation, visual phytotoxicity, glasshouse pots
Format in all cases: in vivo
Conditions in all cases: visual evaluation 7, 14, 21, 28 DAA
[1] = test system: Festuca arundinacea (FESAR, Tall Fescue, Farandole)
Experimental: (§1) Turf selectivity evaluations were performed on the most important cool-season turf varieties, across 4 application rates with two replications contained within a factorial design. Sarmentine was applied at 0, 1500, 3000, and 6000 g ai ha^−1 on Sep. 11, 2010 using a spray volume of 800 L ha^−1 with 0.2% V/V x-77 adjuvant. The solution was delivered with LU 90-02S Lechler nozzles at 2.58 bars with an application speed of 0.96 km hr^−1.
(§2) Plants were grown in 9 cm diameter pots using Les Barges soil, previously characterized as containing 25.4% clay; 7.1% loam, 67.5% sand, 7% CaCO3, 2.4% organic matter, and pH 7.5. Pots were fertilized with Oscarna Rasaflor at 100 g m-2 at seeding. Plants were grown throughout the experiment with day/night temperatures of 23° C./15° C. with relative humidity of between 50-60%.
(§3) Turf species (Table 1) were visually evaluated for symptoms of phytotoxicity (%) using the untreated control as a bench-mark for comparison at 7, 14, 21, and 28 days after application (DAA). Turfgrass species were mown at 13 DAA.

[2] = test system: Agrostis stolonifera (AGSST, Creeping Bentgrass, Pennlinks)
Experimental: as §1, §2, §3

[3] = test system: Poa pratensis (POAPR, Kentucky Bluegrass, Midnight star)
Experimental: as §1, §2, §3

[4] = test system: Lolium perenne (LOLPE, Perennial Ryegrass, Citation Fore)
Experimental: as §1, §2, §3

[5] = test system: Poa annua var. Reptans (POAAN, Annual bluegrass, True Putt)
Experimental: as §1, §2, §3

[6] = rate 1500 g ai ha^-1, grass x rate estimate
[7] = rate 3000 g ai ha^-1, grass x rate estimate
[8] = rate 6000 g ai ha^-1, grass x rate estimate

Which results are given for `CCCCC/C=C/C=C/C(=O)N1CCCC1` [sarmentine, N-(2E,4E-Decadienoyl)pyrrolidine]?
Phyto-toxicity Estimate (% of Untreated) [1, 6]: 14.1 % of Untreated; Phyto-toxicity Estimate (% of Untreated) [1, 7]: 22.8 % of Untreated; Phyto-toxicity Estimate (% of Untreated) [1, 8]: 31.3 % of Untreated; Phyto-toxicity Estimate (% of Untreated) [2, 6]: 13.1 % of Untreated; Phyto-toxicity Estimate (% of Untreated) [2, 7]: 19.4 % of Untreated; Phyto-toxicity Estimate (% of Untreated) [2, 8]: 27.5 % of Untreated; Phyto-toxicity Estimate (% of Untreated) [3, 6]: 6.3 % of Untreated; Phyto-toxicity Estimate (% of Untreated) [3, 7]: 8.8 % of Untreated; Phyto-toxicity Estimate (% of Untreated) [3, 8]: 21.3 % of Untreated; Phyto-toxicity Estimate (% of Untreated) [4, 6]: 15.3 % of Untreated; Phyto-toxicity Estimate (% of Untreated) [4, 7]: 27.2 % of Untreated; Phyto-toxicity Estimate (% of Untreated) [4, 8]: 46.3 % of Untreated; Phyto-toxicity Estimate (% of Untreated) [5, 6]: 35.0 % of Untreated; Phyto-toxicity Estimate (% of Untreated) [5, 7]: 53.8 % of Untreated; Phyto-toxicity Estimate (% of Untreated) [5, 8]: 83.1 % of Untreated
